Data on one compound can be found in ChEMBL document CHEMBL5346906, “Discovery of novel tranylcypromine-based derivatives as LSD1 inhibitors for gastric cancer treatment” (Eur J Med Chem, 2023).

Experiment [1] has as its target Lysine-specific histone demethylase 1A (Homo sapiens, UniProt O60341). Briefly: Inhibition of LSD1 in human MGC-803 cells assessed as increase in mono methylation of H3K9. Format: cell-based. The note with it: dose 0-24 µmol/L.
The test system of experiment [2] is MGC-803. Briefly: Induction of cell differentiation in human MGC-803 cells assessed as decrease in nucleoplasmic ratio of cells incubated for 6 days measured by Giemsa staining method. Type of experiment: functional, cell-based. The note with it: dose 2-4 µmol/L, time 6.0 day.

SMILES strings stand for the structures.

With `O=C(c1cccc(CN[C@@H]2C[C@H]2c2ccc(F)c(F)c2)c1)N1CCN(c2ccc(Cl)c(Cl)c2)CC1`, in experiment [1], the inhibition entry was “Dose-Dependent Effect”. In addition, in experiment [2], the Activity entry is “Dose-Dependent Effect”.
